Assay results from article PMC8322648, “Brevibacillin 2V Exerts Its Bactericidal Activity via Binding to Lipid II and Permeabilizing Cellular Membranes” (Frontiers in Microbiology, 2021).

Experiments:
[1] = Isothermal titration calorimetry; format: binding; settings: Figure 5; DOPC LUVs with 2 mol % Lipid II titrated into 50 μM peptide, 10 mM Tris-HCl, 100 mM NaCl, pH 8, 25°C
Procedure: LUVs containing Lipid II (2%, mol/mol) were prepared by mixing the appropriate volumes of Lipid II and DOPC stock solutions in CHCl3/MeOH (2:1, v/v). The lipid solutions were dried by a nitrogen stream and hydrated with 10 mm Tris-HCl, 100 mm NaCl, and pH 8 buffer to a lipid-phosphate concentration of ~ 20 mm. LUVs were obtained after 10 times freeze-thaw cycles followed by 10 rounds of extrusion through 200 nm membrane filters (Whatman Nuclepore, Track-Etch Membranes). The concentration of lipid-phosphate was determined as described ([Rouser et al., 1970]).
Isothermal titration calorimetry was performed with the Low Volume Nano ITC (Waters LLC, New Castle, DE, United States) to determine the interaction between LUVs and brevibacillins. Brevibacillins were diluted in a buffer (10 mm Tris-HCl, 100 mm NaCl, and pH 8) to a final concentration of 50 μm. Samples were degassed before use. The chamber was filled with 177 μl of the brevibacillins solutions, and the LUVs were titrated into the chamber at a rate of 2 μl/300 s with a stirring rate of 300 rpm. Experiments were performed at 25°C. Control experiments were performed with Lipid II-free LUVs. The Kd values of brevibacillins to Lipid II were calculated using the Nano Analyze Software (Waters LLC).

S. aureus (MRSA) = experiment: Membrane permeability assay, concentration series (fluorescence microscopy); format: cell-based, Staphylococcus aureus; settings: 15 min; for concentration needed to permeabilize virtually all cellular membranes: comparison of brevibacillin and brevibacillin 2V
Procedure: Staphylococcus aureus ATCC15975 (MRSA) was grown to an OD600 of 0.8. The culture was pelleted at 5,000 × g for 5 min and washed three times in 10 mm HEPES with 10 mm glucose (pH 7.2). After normalization of the cell density to an OD600 of 0.2 in 10 mm HEPES with 10 mm glucose (pH 7.2), a 2-fold MIC concentration of brevibacillins (4 μg/ml) or nisin (8 μg/ml) was added. At the same time, SYTO® 9 and propidium iodide (LIVE/DEAD Baclight Bacterial Viability Kit, Invitrogen) were added to the above cell suspensions. After incubation at room temperature for 15 min, peptides were removed and washed three times with 10 mm HEPES with 10 mm glucose (pH 7.2). Then, the cell suspensions were loaded on 1.5% agarose pads and analyzed by DeltaVision Elite microscope (Applied Precision; [Zhao and Kuipers, 2021]).
GraphPad Prism 7.0 was used to fit the data of time-killing assay, DiSC3(5) assay, fluorescence quenching assay, ITC assay, and CF Leakage assay in Figures 3–7. The fluorescence images (ratio of membrane permeabilized cells) were quantified by the software Adobe Photoshop 2021. The Kd values of brevibacillins to Lipid II were calculated using the Nano Analyze Software (Waters LLC). The statistical significance of the data was assessed using Duncan’s multiple range test with the software SPSS Statistics 26; values of p < 0.05 were considered to be statistically significant.
Figure 7 Brevibacillins disrupt membrane permeability without the need for Lipid II binding. (A), Cartoon schematic of the assay used to assess membrane permeability disruption of brevibacillins. (B), CF releases (%) vs. time graph showing the effects of adding brevibacillins to DOPC-LUVs with 0.1% Lipid II; peptide concentrations were 100 nm; a, when peptides were added; and b, when 20% Triton X-100 added. (C), CF releases (%) vs. time graph showing the effects of adding brevibacillins to LUVs of pure DOPC; peptide concentrations were 100 nm; a, when peptides were added; and b, when 20% Triton X-100 was added. (D), fluorescence microscopic images of S. aureus (MRSA) after have been treated by a series concentrations of brevibacillins and nisin for 15 min. (E), the ratio of membrane permeabilized cells that was quantified by Adobe Photoshop 2021; the data are representative of three independent experiments.
To investigate the in vivo membrane disruption capacity of brevibacillin and brevibacillin 2V, a membrane permeability assay was performed with a series of concentrations of antibiotics. Nisin was used as a control.

[2] = system: Staphylococcus aureus (MRSA); settings: ref Zhao et al., cited from earlier work; for MIC: Staphylococcus aureus (MRSA), Figure 1, 2021; for MIC (molar): strain not given, compared with CF leakage concentration, 2021 (MIC source, b3)
Excerpt: Figure 1 Structures of brevibacillins. The red color indicates the more hydrophobic amino acid residues of brevibacillin V, brevibacillin and brevibacillin I relative to brevibacillin 2V. MIC, the minimum inhibitory concentration against Staphylococcus aureus (MRSA). HC50, the 50% human blood cell hemolysis concentration. CC50, the 50% cell (HepG2) toxicity concentration. […] LUVs-based CF leakage assay is widely used in the studies of the antibiotic mode of action ([Hasper et al., 2004]; [Smith et al., 2008]; [Slootweg et al., 2015]; [Bakhtiary et al., 2017]). Disruption of the vesicle membrane by certain compounds releases CF from the LUVs into the extra-vesicular milieu resulting in increased fluorescence signal (Figure ...

HepG2 = settings: Figure 1, ref Zhao et al., 2021; cited from earlier work
Excerpt: (§1) A vast number of bacterial non-ribosomally produced peptides (NRPs) have shown strong antimicrobial activity against pathogenic bacteria ([Cochrane et al., 2014]; [Cociancich et al., 2015]; [Hamamoto et al., 2015]; [Ling et al., 2015]; [Süssmuth and Mainz, 2017]). Lipo-tridecapeptides, a class of NRPs, show strong antimicrobial activity against Gram-positive pathogens, including antibiotic-resistant Staphylococcus aureus and Enterococcus spp. ([Barsby et al., 2001], [2006]; [Yang et al., 2016]; [Wu et al., 2019]; [Zhao et al., 2021]). However, many of these lipo-tridecapeptides have shown high ... || Figure 1 Structures of brevibacillins. The red color indicates the more hydrophobic amino acid residues of brevibacillin V, brevibacillin and brevibacillin I relative to brevibacillin 2V. MIC, the minimum inhibitory concentration against Staphylococcus aureus (MRSA). HC50, the 50% human blood cell hemolysis concentration. CC50, the 50% cell (HepG2) toxicity concentration.

human red blood cells = settings: 2021, cited from earlier work; for HC50, 50% human blood cell hemolysis concentration: Figure 1, ref Zhao et al.
Excerpt: as §1

Row | Substance | Kd [1] | membrane permeabilization capacity, comparison (S. aureus (MRSA); 100 nM and 400 nM, ratio of membrane permeabilized cells, three independent experiments, p < 0.05) | concentration needed to permeabilize virtually all cellular membranes (S. aureus (MRSA)) | MIC [2] | MIC (molar) [2] | CC50, 50% cell (HepG2) toxicity concentration (HepG2) | HC50, 50% human blood cell hemolysis concentration (human red blood cells) | membrane permeabilization at 100 nM (S. aureus (MRSA); 100 nM, versus untreated group) | cytotoxicity relative to the other brevibacillins (HepG2) | hemolytic activity (human red blood cells; 128 mg/L, ref Zhao et al.)
1 | Brevibacillin | 0.869 µM | significantly (p < 0.05) higher membrane permeabilization capacity than brevibacillin 2V | a similar concentration of brevibacillin and brevibacillin 2V is needed | 2 mg/L | 1.3 µM | 5.21 ± 0.01 mg/L | 25.1 ± 0.1 mg/L |  |  | 
2 | Brevibacillin 2V | 7.89 µM |  | a similar concentration of brevibacillin and brevibacillin 2V is needed | 2 mg/L | 1.3 µM | 45.49 ± 0.24 mg/L | > 128 mg/L | did not induce membrane permeabilization | much lower cytotoxicity than the other brevibacillins | no hemolytic activity
